From patent US20150305333A1, “USE OF GLUCOSAMINE AMIDES AS PLANT GROWTH AND YIELD ENHANCERS” (PIONEER HI-BRED INTERNATIONAL, INC., priority 2012, published 2015)

System: corn seeds
Assay: Petri dish seed germination assay, corn
Assay type: in vivo
Procedure: A series of Petri dish seed assays was conducted to evaluate the effects NPG on the seed germination rates of corn, soybean, and canola seeds subjected to cold stress, salt stress and non-stressed conditions (salt stress only for canola). Assays were performed with ten replications of ten seeds/plate (100 total seeds). NPG was applied to seeds at the specified concentrations prior to being placed in Petri plates. Seeds designated for Salt Stress Experiments 1 & 2 were placed in Petri dishes containing a 100 mM NaCl solution and incubated at 21° C.-22° C. in the dark. Cold stress Petri dishes were incubated at 15° C. in the dark. Untreated Controls were incubated at 21° C.-22° C. in the dark as were seeds utilized in the separately conducted non-stressed germination assays. Data was recorded as percent germination at designated times after plating. Statistical analyses were performed using one-way Anova and Kruskal-Wallis one-way analysis of variance on rank combined with Dunn's all pairwise multiple comparison procedure (α=0.05).

Methyl 2-deoxy-2-N-(hexadece-9,10-cis-eneoyl)-β-D-glucopyranoside [NPG]
Corn Seed Germination (Salt Stress (100 mM NaCl) Experiment 1, 10^−6M, 30 HAP): 34a % | Corn Seed Germination (Salt Stress (100 mM NaCl) Experiment 1, 10^−6M, 40 HAP): 83a % | Corn Seed Germination (Salt Stress (100 mM NaCl) Experiment 1, 10^−6M, 48 HAP): 96a % | Corn Seed Germination (Salt Stress (100 mM NaCl) Experiment 1, 10^−7M, 30 HAP): 23a % | Corn Seed Germination (Salt Stress (100 mM NaCl) Experiment 1, 10^−7M, 40 HAP): 68a % | Corn Seed Germination (Salt Stress (100 mM NaCl) Experiment 1, 10^−7M, 48 HAP): 91a %
